Results on 21 molecules are retold here after patent US12331026B2 (NiKang Therapeutics, Inc., priority 2022, dated 2025).

Molecules are shown by their SMILES.

In this experiment the target is T1, CDK2 (Homo sapiens, UniProt P24941).
T1 construct: endogenous in cells; host or cells: OVCAR3 cells
Briefly: Phospho-RB measurement in OVCAR3 cells (HTRF phospho-RB S807/811). The experiment is classed as cell-based. As to conditions: phosphorylation of RB protein at S807/811, HTRF, 24 h compound treatment, 0.3 to 10,000 nM, read-out: pRb (uM). A digest of the protocol:
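IC50 values come from four-parameter logistic fits of the DMSO-normalised 665/620 nm TR-FRET ratio for phospho-RB (S807/811). Antibody detection ran 4 h at room temperature.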
(In general: In TR-FRET formats the signal depends on donor and acceptor labels being close together.)
For `O=S1(=O)CC2(CC(Nc3nccc(-c4sc(N5C6CCC5CN(C5CC(F)(F)C5)C6)nc4-c4cccc(NS(=O)(=O)c5c(F)cccc5C(F)(F)F)c4F)n3)C2)C1` [Example 149, N-(3-(2-(3-(3,3-difluorocyclobutyl)-3,8-diazabicyclo[3.2.1]octan-8-yl)-5-(2-((2,2-dioxido-2-thiaspiro[3.3]heptan-6-yl)amino)pyrimidin-4-yl)thiazol-4-yl)-2-fluorophenyl)-2-fluoro-6-(trifluoromethyl)benzenesulfonamide], the IC50 was 0.09 µM. Under `CS(=O)(=O)[C@H]1CC[C@@H](Nc2nccc(-c3sc(C45CC(C4)C5)nc3-c3cccc(NS(=O)(=O)c4c(F)cccc4C(F)(F)F)c3F)n2)CC1` [Example 132, N-(3-(2-(bicyclo[1.1.1]pentan-1-yl)-5-(2-(((1s,4s)-4-(methylsulfonyl)cyclohexyl)amino)pyrimidin-4-yl)thiazol-4-yl)-2-fluorophenyl)-2-fluoro-6-(trifluoromethyl)benzenesulfonamide] stands 0.05 µM; under `CN1CC2CCC(C1)N2c1nc(-c2cccc(NS(=O)(=O)c3c(F)cccc3F)c2F)c(-c2ccnc(NC3CC4(C3)CS(=O)(=O)C4)n2)s1` [Example 135, N-(3-(5-(2-((2,2-dioxido-2-thiaspiro[3.3]heptan-6-yl)amino)-pyrimidin-4-yl)-2-(3-methyl-3,8-diazabicyclo[3.2.1]octan-8-yl)thiazol-4-yl)-2-fluorophenyl)-2,6-difluorobenzenesulfonamide], 0.07 µM. `CC1(c2nc(-c3cccc(NS(=O)(=O)c4c(F)cccc4F)c3F)c(-c3ccnc(NC4CC5(C4)CS(=O)(=O)C5)n3)s2)CCNCC1` [Example 14, N-(3-(5-(2-((2,2-dioxido-2-thiaspiro[3.3]heptan-6-yl)amino)pyrimidin-4-yl)-2-(4-methylpiperidin-4-yl)thiazol-4-yl)-2-fluorophenyl)-2,6-difluorobenzenesulfonamide]: the IC50 worked out at 18.1 µM. For the molecule `CC(C)(C)OC(=O)N1CCC(C)(c2nc(-c3cccc(NS(=O)(=O)c4c(F)cccc4F)c3F)c(-c3ccnc(NC4CC5(C4)CS(=O)(=O)C5)n3)s2)CC1` [Example 13, tert-butyl 4-(4-(3-((2,6-difluorophenyl)sulfonamido)-2-fluorophenyl)-5-(2-((2,2-dioxido-2-thiaspiro[3.3]heptan-6-yl)amino)pyrimidin-4-yl)thiazol-2-yl)-4-methylpiperidine-1-carboxylate], the IC50 is 0.73 µM. Under `CN1CC2CCC1CN2c1nc(-c2cccc(NS(=O)(=O)c3c(F)cccc3F)c2F)c(-c2ccnc(NC3CC4(C3)CS(=O)(=O)C4)n2)s1` (stereo not drawn) [Example 28, N-(3-(5-(2-((2,2-dioxido-2-thiaspiro[3.3]heptan-6-yl)amino)pyrimidin-4-yl)-2-(5-methyl-2,5-diazabicyclo[2.2.2]octan-2-yl)thiazol-4-yl)-2-fluorophenyl)-2,6-difluorobenzenesulfonamide] stands 1.17 µM. Take `O=S1(=O)CC2(CC(Nc3nccc(-c4sc(N5CC6CCC(CC6)C5)nc4-c4cccc(NS(=O)(=O)c5c(F)cccc5F)c4F)n3)C2)C1` [Example 21]: the IC50 worked out at 0.24 µM. With `O=S1(=O)CC2(CC(Nc3nccc(-c4sc(C56CC(CO)(C5)C6)nc4-c4cccc(NS(=O)(=O)c5c(F)cccc5F)c4F)n3)C2)C1` [Example 34, N-(3-(5-(2-((2,2-dioxido-2-thiaspiro[3.3]heptan-6-yl)amino)pyrimidin-4-yl)-2-(3-(hydroxymethyl)bicyclo[1.1.1]pentan-1-yl)thiazol-4-yl)-2-fluorophenyl)-2,6-difluorobenzenesulfonamide], the IC50 was found to be 2.01 µM. Under `O=S1(=O)CC2(CC(Nc3nccc(-c4sc(C56CC(C(F)(F)F)(C5)C6)nc4-c4cccc(NS(=O)(=O)c5c(F)cccc5C(F)(F)F)c4F)n3)C2)C1` [Example 88, N-(3-(5-(2-((2,2-dioxido-2-thiaspiro[3.3]heptan-6-yl)amino)-pyrimidin-4-yl)-2-(3-(trifluoromethyl)bicyclo[1.1.1]pentan-1-yl)thiazol-4-yl)-2-fluorophenyl)-2-fluoro-6-(trifluoromethyl)-benzenesulfonamide] stands 0.09 µM; under `CS(=O)(=O)[C@H]1CC[C@H](Nc2nccc(-c3sc(C45CC(C(F)F)(C4)C5)nc3-c3cccc(NS(=O)(=O)c4c(F)cccc4C(F)(F)F)c3F)n2)CC1` [Example 134, N-(3-(2-(3-(difluoromethyl)bicyclo[1.1.1]pentan-1-yl)-5-(2-(((1r,4r)-4-(methylsulfonyl)cyclohexyl)amino)pyrimidin-4-yl)thiazol-4-yl)-2-fluorophenyl)-2-fluoro-6-(trifluoromethyl)benzenesulfonamide], 0.08 µM; under `CC1(O)CC(N2CC3CCC(C2)N3c2nc(-c3cccc(NS(=O)(=O)c4c(F)cccc4F)c3F)c(-c3ccnc(NC4CC5(C4)CS(=O)(=O)C5)n3)s2)C1` (stereo not drawn) [Example 46, N-(3-(5-(2-((2,2-dioxido-2-thiaspiro[3.3]heptan-6-yl)amino)-pyrimidin-4-yl)-2-(3-(3-hydroxy-3-methylcyclobutyl)-3,8-diazabicyclo[3.2.1]octan-8-yl)thiazol-4-yl)-2-fluorophenyl)-2,6-difluorobenzenesulfonamide], 1.36 µM. Regarding `O=S1(=O)CC2(CC(Nc3nccc(-c4sc(N5CC6CCC5CC6)nc4-c4cccc(NS(=O)(=O)c5c(F)cccc5F)c4F)n3)C2)C1` [Example 18, N-(3-(2-(2-azabicyclo[2.2.2]octan-2-yl)-5-(2-((2,2-dioxido-2-thiaspiro[3.3]heptan-6-yl)amino)pyrimidin-4-yl)thiazol-4-yl)-2-fluorophenyl)-2,6-difluorobenzenesulfonamide], the IC50 was 0.079 µM. For `C[C@H]1CNC[C@H](C)N1c1nc(-c2cccc(NS(=O)(=O)c3c(F)cccc3F)c2F)c(-c2ccnc(NC3CC4(C3)CS(=O)(=O)C4)n2)s1` [Example 62, N-(3-(2-((2S,6S)-2,6-dimethylpiperazin-1-yl)-5-(2-((2,2-dioxido-2-thiaspiro[3.3]heptan-6-yl)amino)pyrimidin-4-yl)thiazol-4-yl)-2-fluorophenyl)-2,6-difluorobenzenesulfonamide], the IC50 is 3.86 µM. With `O=S1(=O)CC2(CC(Nc3nccc(-c4sc(N5C6CCC5CN(C5CCC(F)(F)CC5)C6)nc4-c4cccc(NS(=O)(=O)c5c(F)cccc5F)c4F)n3)C2)C1` [Example 147, N-(3-(2-(3-(4,4-difluorocyclohexyl)-3,8-diazabicyclo[3.2.1]octan-8-yl)-5-(2-((2,2-dioxido-2-thiaspiro[3.3]heptan-6-yl)amino)pyrimidin-4-yl)thiazol-4-yl)-2-fluorophenyl)-2,6-difluorobenzenesulfonamide], the IC50 stood at 0.91 µM. The same measure for `CS(=O)(=O)[C@H]1CC[C@@H](Nc2nccc(-c3sc(C45CC(F)(C4)C5)nc3-c3cccc(NS(=O)(=O)c4c(F)cccc4C(F)(F)F)c3F)n2)CC1` [Example 87, 2-fluoro-N-(2-fluoro-3-(2-(3-fluorobicyclo[1.1.1]pentan-1-yl)-5-(2-(((1s,4s)-4-(methylsulfonyl)cyclohexyl)-amino)pyrimidin-4-yl)thiazol-4-yl)phenyl)-6-(trifluoromethyl)benzenesulfonamide]: 0.077 µM; for `O=S1(=O)C[C@@H]2[C@H](C1)[C@H]2Nc1nccc(-c2sc(N3C4CCC3CN(C3CC(F)(F)C3)C4)nc2-c2cccc(NS(=O)(=O)c3c(F)cccc3C(F)(F)F)c2F)n1` [Example 109, N-(3-(2-(3-(3,3-difluorocyclobutyl)-3,8-diazabicyclo[3.2.1]octan-8-yl)-5-(2-(((1R,5S,6r)-3,3-dioxido-3-thiabicyclo[3.1.0]hexan-6-yl)amino)pyrimidin-4-yl)thiazol-4-yl)-2-fluorophenyl)-2-fluoro-6-(trifluoromethyl)benzenesulfonamide]: 0.09 µM; for `O=S1(=O)C[C@@H]2[C@H](C1)[C@@H]2Nc1nccc(-c2sc(C34CCC(CC3)C4)nc2-c2cccc(NS(=O)(=O)c3c(F)cccc3F)c2F)n1` [Example 73, N-(3-(2-(bicyclo[2.2.1]heptan-1-yl)-5-(2-(((1R,5S,6s)-3,3-dioxido-3-thiabicyclo[3.1.0]hexan-6-yl)amino)pyrimidin-4-yl)thiazol-4-yl)-2-fluorophenyl)-2,6-difluorobenzenesulfonamide]: 0.6 µM. Under `CN1CCC(C)(c2nc(-c3cccc(NS(=O)(=O)c4c(F)cccc4F)c3F)c(-c3ccnc(NC4CC5(C4)CS(=O)(=O)C5)n3)s2)CC1` [Example 15, N-(3-(2-(1,4-dimethylpiperidin-4-yl)-5-(2-((2,2-dioxido-2-thiaspiro[3.3]heptan-6-yl)amino)pyrimidin-4-yl)thiazol-4-yl)-2-fluorophenyl)-2,6-difluorobenzenesulfonamide] stands 3.2 µM; under `O=S1(=O)CC2(CC(Nc3nccc(-c4sc(N5C6CCC5CN(C5CCOCC5)C6)nc4-c4cccc(NS(=O)(=O)c5c(F)cccc5F)c4F)n3)C2)C1` [Example 148, N-(3-(5-(2-((2,2-dioxido-2-thiaspiro[3.3]heptan-6-yl)amino)pyrimidin-4-yl)-2-(3-(tetrahydro-2H-pyran-4-yl)-3,8-diazabicyclo[3.2.1]octan-8-yl)thiazol-4-yl)-2-fluorophenyl)-2,6-difluorobenzenesulfonamide], 0.4 µM. In the case of `CS(=O)(=O)[C@H]1CC[C@H](Nc2nccc(-c3sc(C45CC(C4)C5)nc3-c3cccc(NS(=O)(=O)c4c(F)cccc4C(F)(F)F)c3F)n2)CC1` [Example 36], the IC50 was 0.09 µM. Under `O=S1(=O)CC2(CC(Nc3nccc(-c4sc(C56CC(C5)C6)nc4-c4cccc(NS(=O)(=O)c5c(F)cccc5OC(F)F)c4F)n3)C2)C1` [Example 58, N-(3-(2-(bicyclo[1.1.1]pentan-1-yl)-5-(2-((2,2-dioxido-2-thiaspiro[3.3]heptan-6-yl)amino)pyrimidin-4-yl)thiazol-4-yl)-2-fluorophenyl)-2-(difluoromethoxy)-6-fluorobenzenesulfonamide] stands 0.09 µM.
